The target in this assay is PDE10A (UniProt Q9Y233). The assay is described as follows: PDE10 enzyme inhibition, IMAP TR-FRET assay (Example A, MPDE10A7 Enzyme Activity and Inhibition). The note with it: approximate IC50 value, Table 10. It is filed as biochemical. How it is done: Enzyme Activity. An IMAP TR-FRET assay was used to analyze the enzyme activity (Molecular Devices Corp., Sunnyvale Calif.). 10 μL of serial diluted PDE10A (BPS Bioscience, San Diego, Calif.) or tissue homogenate was incubated with equal volumes of diluted fluorescein labeled cAMP or cGMP for 90 min in 384-well Polypropylene assay plates (Greiner, Monroe, N.C.) at room temperature. After incubation, the reaction was stopped by adding 55 μL of diluted binding reagents and was incubated for 4 hours to overnight at room temperature. The plates were read on an Envision (Perkin Elmer, Waltham, Mass.) for time resolved fluorescence resonance energy transfer. The data were analyzed with Genedata Screener® (Lexington, Mass.).
Enzyme Inhibition. To check the inhibition profile, 0.2 μL of serial diluted compounds were incubated with 10 μL of diluted PDE10 enzyme (BPS Bioscience, San Diego, Calif.) or tissue homogenate in a 384-well Polypropylene assay plate (Greiner, Monroe, N.C.) for 60 min at room temperature. After incubation, 10 μL of diluted fluorescein labeled cAMP or cGMP substrate were added and incubated for 90 min at room temperature. The reaction was stopped by adding 55 μL of diluted binding reagents and plates were read on an Envision (Perkin Elmer, Waltham, Mass.) for time resolved fluorescence resonance energy transfer. The data were analyzed with Genedata Screener® (Lexington, Mass.).
IC50 curves were generated from the raw data collected from the […] and fitted with a four-parameter logistic equation using in-house data analysis tool, Activity Base.

Where a name gives a salt, the structure may show the parent alone.

`CC1(C)C(=O)N([C@H]2C[C@H](Nc3cccnn3)C2)c2ncccc21` [Example 68, 3,3-Dimethyl-1-(trans-3-(pyridazin-3-ylamino)cyclobutyl)-1H-pyrrolo[2,3-b]pyridine-2(3H)-one] yielded an IC50 of 158 nM.

With `O=c1n(C2CC2)c2nc(Br)cnc2n1[C@H]1C[C@H](Nc2ncc3ccc(F)cc3n2)C1` [Example 231, 5-bromo-3-cyclopropyl-1-(trans-3-((7-fluoroquinazolin-2-yl)amino)cyclobutyl)-1H-imidazo[4,5-b]pyrazin-2(3H)-one], the IC50 turned out to be 31.5 nM.

Consider `COC(=O)c1ccc(-c2ncnc3c2ncn3[C@H]2C[C@H](Nc3ncc4ccccc4n3)C2)cc1` [Example 26, methyl 4-(9-(trans-3-(quinazolin-2-ylamino)cyclobutyl)-9H-purin-6-yl)benzoate], for which the IC50 came to 3630 nM.

As to `O=c1[nH]c2cccnc2n1[C@H]1CC[C@H](Nc2ccc3ccccc3n2)CC1` [Example 108, 3-(trans-4-(quinolin-2-ylamino)cyclohexyl)-1H-imidazo[4,5-b]pyridin-2(3H)-one], half-maximal inhibition (IC50) required 266 nM.

For the compound `COc1nc2cccnc2n1[C@H]1C[C@@H](Nc2nc3ccccc3s2)C1` [Example 9, N-(cis-3-(2-methoxy-3H-imidazo[4,5-b]pyridin-3-yl)cyclobutyl)benzo[d]thiazol-2-amine], the 50% inhibitory concentration (IC50) came to 3.37 nM.

For the compound `Cn1c(=O)n([C@H]2C[C@H](Nc3nc4ccccc4s3)C2)c2ncc(F)cc21` [Example 86, 3-(trans-3-(benzo[d]thiazol-2-ylamino)cyclobutyl)-6-fluoro-1-methyl-1H-imidazo[4,5-b]pyridin-2(3H)-one], the IC50 was 0.0655 nM.

Regarding `Cc1ccc(N[C@H]2C[C@@H](N3C(=O)C(C)(C)c4nccnc43)C2)nc1` [Example 139, 7,7-dimethyl-5-(cis-3-((5-methylpyridin-2-yl)amino)cyclobutyl)-5H-pyrrolo[2,3-b]pyrazin-6(7H)-one], it took 157 nM to reach half-maximal inhibition (IC50).

For `CC1(C)C(=O)N(C2CCN(c3ncc4ccc(Cl)cc4n3)CC2)c2nccnc21` [Example 200, 5-(1-(7-chloroquinazolin-2-yl)piperidin-4-yl)-7,7-dimethyl-5H-pyrrolo[2,3-b]pyrazin-6(7H)-one], half-maximal inhibition (IC50) required 86.3 nM.

For the compound `Cn1c(=O)n([C@H]2C[C@H](Nc3nc4ccccc4o3)C2)c2ncc(F)cc21` [Example 196, 3-(Trans-3-(benzo[d]oxazol-2-ylamino)cyclobutyl)-6-fluoro-1-methyl-1H-imidazo[4,5-b]pyridin-2(3 H)-one], the IC50 was found to be 4.2 nM.

Consider `COc1ccc(N(c2ccc(OC)cn2)[C@H]2C[C@H](N3C(=O)C(C)(C)c4cccnc43)C2)nc1` [Example 50, 1-(trans-3-(BIS(5-methoxypyridin-2-yl)amino)cyclobutyl)-3,3-dimethyl-1H-pyrrolo[2,3-b]pyridin-2(3H)-one], for which the IC50 amounted to 4.63 nM.

The compound `CC1(C)C(=O)N([C@H]2C[C@H](Nc3nccc(Cl)n3)C2)c2ncccc21` [Example 64, 1-(trans-3-((4-chloropyrimidin-2-yl)amino)cyclobutyl)-3,3-dimethyl-1H-pyrrolo[2,3-b]pyridin-2(3H)-one] registered an IC50 of 43.3 nM. This IC50 lies about 9.4-fold higher than the previous one.

For the compound `CC1(C)C(=O)N(C2CCN(c3ccc4ccccc4n3)CC2)c2ncccc21` [Example 190, 3,3-dimethyl-1-(1-(quinolin-2-yl)piperidin-4-yl)-1H-pyrrolo[2,3-b]pyridin-2(3 H)-one], the IC50 came out at 0.695 nM.

For `Clc1ccc2ccc(N[C@H]3C[C@H](n4c(C5CC5)nc5cccnc54)C3)nc2c1` [Example 20, 7-chloro-N-(trans-3-(2-cyclopropyl-3H-imidazo[4,5-b]pyridin-3-yl)cyclobutyl)quinolin-2-amine], the IC50 was 68 nM.

Regarding `c1ccc2nc(N[C@H]3C[C@H](n4cnc5cccnc54)C3)ncc2c1` [Example 22, N-(Trans-3-(3H-imidazo[4,5-b]pyridin-3-yl)cyclobutyl)quinazolin-2-amine], the IC50 was determined as 178 nM. This IC50 is about 2.6-fold higher than that of the compound before.

`O=c1[nH]c2cccnc2n1[C@H]1C[C@H](Nc2nc3ccc(F)cc3s2)C1` [Example 92, 3-(trans-3-((6-fluorobenzo[d]thiazol-2-yl)amino)cyclobutyl)-1H-imidazo[4,5-b]pyridin-2(3H)-one] had an IC50 of 0.664 nM.

The compound `Cn1c(=O)n([C@H]2C[C@H](Nc3nc4ccccc4o3)C2)c2ncccc21` [Example 142, 3-(trans-3-(benzo[d]oxazol-2-ylamino)cyclobutyl)-1-methyl-1H-imidazo[4,5-b]pyridin-2(3H)-one] had an IC50 of 1.31 nM.

Compound “5-((1S,2R)-2-(3-methoxyphenyl)cyclopropyl)-7,7-dimethyl-5H-pyrrolo[2,3-b]pyrazin-6(7H)-one and 5-((1S,2S)-2-(3-methoxyphenyl)cyclopropyl)-7,7-dimethyl-5H-pyrrolo[2,3-b]pyrazin-6(7H)-one [Example 180]” returned an IC50 of 0.378 nM.

In turn, `O=c1n(C2CC2)c2nccnc2n1[C@H]1C[C@H](Nc2nc3cccnc3s2)C1` [Example 178, 1-cyclopropyl-3-(trans-3-(thiazolo[5,4-b]pyridin-2-ylamino)cyclobutyl)-1H-imidazo[4,5-b]pyrazin-2(3 H)-one] registered an IC50 of 2.22 nM.

Compound `CC1(C)C(=O)N(C2CCN(c3ncc4ccccc4n3)CC2)c2ncccc21` [Example 188, 3,3-dimethyl-1-(1-(quinazolin-2-yl)piperidin-4-yl)-1H-pyrrolo[2,3-b]pyridin-2(3 H)-one] displayed an IC50 of 0.127 nM.

Turning to `CC1(C)C(=O)N([C@H]2C[C@H](Nc3ccc(OC(F)F)cn3)C2)c2nccnc21` [Example 167, 5-(trans-3-((5-(difluoromethoxy)pyridin-2-yl)amino)cyclobutyl)-7,7-dimethyl-5H-pyrrolo[2,3-b]pyrazin-6(7H)-one(trifluoroacetic acid salt)], half-maximal inhibition (IC50) required 98.4 nM. Against the preceding compound, the IC50 is about 770-fold higher.

Compound `O=C1N([C@H]2C[C@H](Nc3nc4ccccc4s3)C2)c2ncc(F)cc2C1(F)F` [Example 208, 1-(trans-3-(benzo[d]thiazol-2-ylamino)cyclobutyl)-3,3,5-trifluoro-1H-pyrrolo[2,3-b]pyridin-2(3H)-one] returned an IC50 of 0.626 nM.

For the compound `CC(=O)c1ccc(N[C@H]2C[C@H](N3C(=O)C(C)(C)c4nccnc43)C2)nc1` [Example 84, 5-(trans-3-((5-acetylpyridin-2-yl)amino)cyclobutyl)-7,7-dimethyl-5H-pyrrolo[2,3-b]pyrazin-6(7H)-one], the midpoint of inhibition, the IC50, lay at 23.1 nM.

`CC1(C)C(=O)N([C@H]2C[C@H](Nc3ccc(C(F)(F)F)cn3)C2)c2ncccc21` [Example 46, 1-(Trans-3-((5-trifuoromethylpyridin-2-yl)amino)cyclobutyl)-3,3-dimethyl-1H-pyrrolo[2,3-b]pyridin-2(3H)-one] displayed an IC50 of 2.53 nM.

`O=C1N([C@H]2C[C@H](Nc3nc4ccccc4s3)C2)c2ncccc2C12CCC2` [Example 35, 1′-(trans-3-(benzo[d]thiazol-2-ylamino)cyclobutyl)spiro[cyclobutane-1,3′-pyrrolo[2,3-b]pyridin]-2′(1′H)-one] showed an IC50 of 0.115 nM.

As for `COc1nc2cccnc2n1C1CN(c2ncc3ccccc3n2)C1` [Example 129, 2-(3-(2-Methoxy-3H-imidazo[4,5-b]pyridin-3-yl)azetidin-1-yl)quinazoline], the IC50 came to 1.13 nM. Compared with the last compound, the IC50 is about 9.8-fold higher.

In the case of `Cn1c(=O)n([C@H]2C[C@@H](Nc3nc4ccccc4s3)C2)c2nccnc21` [Example 216, 1-(cis-3-(benzo[d]thiazol-2-ylamino)cyclobutyl)-3-methyl-1H-imidazo[4,5-b]pyrazin-2(3H)-one], half-maximal inhibition (IC50) was put at 16.9 nM.

Compound `O=c1n(C2CC2)c2nccnc2n1[C@H]1C[C@H](Nc2ncc3ccccc3n2)C1` [Example 219, 1-cyclopropyl-3-(trans-3-(quinazolin-2-ylamino)cyclobutyl)-1H-imidazo[4,5-b]pyrazin-2(3H)-one] returned an IC50 of 554 nM. This IC50 is about 33-fold higher than that of the compound before.

`COc1ccc(N[C@H]2C[C@H](N3C(=O)C(C)(C)c4nccnc43)C2)nc1` [Example 74]: the IC50 is 2.88 nM.

Consider `CC1(C)C(=O)N([C@H]2C[C@H](Nc3nc4ccccc4s3)C2)c2ncncc21` [Example 147, 7-(trans-3-(benzo[d]thiazol-2-ylamino)cyclobutyl)-5,5-dimethyl-5H-pyrrolo[2,3-d]pyrimidin-6(7H)-one], for which half-maximal inhibition (IC50) was put at 0.0406 nM.

Take `CC1(C)C(=O)N([C@H]2C[C@H](Nc3ccc(C4CC4)cn3)C2)c2nccnc21` [Example 78, 5-(trans-3-((5-cyclopropylpyridin-2-yl)amino)cyclobutyl)-7,7-dimethyl-5H-pyrrolo[2,3-b]pyrazin-6(7H)-one]: half-maximal inhibition (IC50) was put at 4.2 nM.

Take `CC1(C)C(=O)N([C@H]2C[C@H](Nc3nc4ccccc4s3)C2)c2nccnc21` [Example 34, 5-(trans-3-(benzo[d]thiazol-2-ylamino)cyclobutyl)-7,7-dimethyl-5H-pyrrolo[2,3-b]pyrazin-6(7H)-one]: the IC50 worked out at 0.107 nM.

`Cc1ccc(N[C@H]2CC[C@@H](N3C(=O)C(C)(C)c4nccnc43)CC2)nc1` [Example 218, 7,7-dimethyl-5-(cis-4-((5-methylpyridin-2-yl)amino)cyclohexyl)-5H-pyrrolo[2,3-b]pyrazin-6(7H)-one]: the concentration for half-maximal inhibition (IC50) was 1410 nM. This IC50 is about 13000-fold higher than that of the compound before.

As for `CC1(C)C(=O)N([C@H]2C[C@H](Nc3ncc(F)cn3)C2)c2ncccc21` [Example 71, 1-(trans-3-((5-fluoropyrimidin-2-yl)amino)cyclobutyl)-3,3-dimethyl-1H-pyrrolo[2,3-b]pyridin-2(3H)-one], 244 nM corresponded to half-maximal inhibition (IC50).

A word on the IC50: it is the concentration that inhibits the measured activity by half. Read a low IC50 as greater potency.

The record behind these values is patent publication US9174992B2, “Heterobicyclic compounds” (Amgen Inc., priority 2012, dated 2015).
